What all share (format): functional, organism-based
The test system of experiment [1] is Staphylococcus aureus. Briefly: Induction of spa virulent gene expression in Staphylococcus aureus PC203 containing spa::lacZ assessed as color chage at 150 ug/ml at 37 degC in presence of chromogenic beta-galactosidase substrate.
Experiment [2] deals with Staphylococcus aureus. Briefly: Induction of hla virulent gene expression in Staphylococcus aureus PC322 containing hla::lacZ assessed as color chage at 150 ug/ml at 37 degC in presence of chromogenic beta-galactosidase substrate and 1 to 50 % glucose solution.
Experiment [3] concerns Staphylococcus aureus. Briefly: Induction of spa virulent gene expression in Staphylococcus aureus PC203 containing spa::lacZ assessed as color chage at 150 ug/ml at 37 degC in presence of chromogenic beta-galactosidase substrate and 1 to 50 % glucose solution.
For experiment [4], the system named is Staphylococcus aureus. As to the kind of experiment: Induction of hla virulent gene expression in Staphylococcus aureus PC322 containing hla::lacZ assessed as color chage at 150 ug/ml at 37 degC in presence of chromogenic beta-galactosidase substrate.
Experiment [5] has as its system Staphylococcus aureus. As to the kind of experiment: Induction of spa virulent gene expression in Staphylococcus aureus PC203 containing spa::lacZ assessed as color chage at 5 ug/ml at 37 degC in presence of chromogenic beta-galactosidase substrate.
In experiment [6] the test system is Staphylococcus aureus. Briefly: Induction of spa virulent gene expression in Staphylococcus aureus PC203 containing spa::lacZ assessed as color chage at 5 ug/ml at 37 degC in presence of chromogenic beta-galactosidase substrate and 1 to 50 % glucose solution.
In experiment [7] the test system is Staphylococcus aureus. Briefly: Induction of hla virulent gene expression in Staphylococcus aureus PC322 containing hla::lacZ assessed as color chage at 5 ug/ml at 37 degC in presence of chromogenic beta-galactosidase substrate.
The test system of experiment [8] is Staphylococcus aureus. Briefly: Induction of hla virulent gene expression in Staphylococcus aureus PC322 containing hla::lacZ assessed as color chage at 5 ug/ml at 37 degC in presence of chromogenic beta-galactosidase substrate and 1 to 50 % glucose solution.

The text below walks through data of ChEMBL document CHEMBL1240357, “Method for screening compounds that influence virulence gene expression in Staphylococcus aureus” (Antimicrob Agents Chemother, 2010).

Calls of active or inactive are those of the source. The calls are words filed in the database; no cut-off is given here.

In the case of `OC[C@H]1O[C@@H](Oc2c[nH]c3ccc(Br)c(Cl)c23)[C@H](O)[C@@H](O)[C@H]1O`, the outcome in experiment [1] and in experiment [4] was Active. Besides, the outcome in experiment [2] and in experiment [3] was inactive.

As for `CC[C@H]1OC(=O)[C@H](C)[C@@H](O[C@H]2C[C@@](C)(OC)[C@@H](O)[C@H](C)O2)[C@H](C)[C@@H](O[C@@H]2O[C@H](C)C[C@H](N(C)C)[C@H]2O)[C@](C)(O)C[C@@H](C)C(=O)[C@H](C)[C@@H](O)[C@]1(C)O`, the outcome in experiment [5] and in experiment [7] was Active. For the same compound, the result in experiment [6] and in experiment [8] was inactive.
